Laboratory results taken from patent publication US20250114374A1, “BCL-2 INHIBITORS” (Newave Pharmaceutical Inc., priority 2021, published 2025).
pIC50: −log10 of the molar value.

Test system: RS4; 11 with G101V mutation
Assay: In vitro anti-proliferation assay (ATPlite luminescence) in BCL-2-dependent ALL cell line RS4;11 with G101V mutation
Format: cell-based
Conditions: cellular anti-proliferative IC50, about 72 hours, medium with 10% FBS, ATPlite; read-out: RS411-G101V IC50
Method in brief: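 RS4;11 G101V cells at about 1×10^4 per well were exposed to a range of compound concentrations for about 72 h in medium with 10% FBS. Cellular ATP was measured by ATPlite luminescence after lysis, and IC50 was derived from the dose-response.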

Compound	pIC50
COc1cc(CN2CCN(C3CC4(CCN(c5ccc(C(=O)NS(=O)(=O)c6cc7c(c([N+](=O)[O-])c6)N[C@H](C6CCOCC6)CO7)c(N6c7cc8cc[nH]c8nc7O[C@H]7COCC[C@@H]76)c5)CC4)C3)[C@H](c3ccccc3C)C2)cnc1N1CCOC[C@H]1C [Example 188, 2-[(3R,8S)-2,5-dioxa-9,15,17-triazatetracyclo[8.7.0.0^{3,8}.0^{12,16}]heptadeca-1(10),11,13,16-tetraen-9-yl]-4-{2-[(2R)-4-({5-methoxy-6-[(3R)-3-methylmorpholin-4-yl]pyridin-3-yl}methyl)-2-(2-methylphenyl)piperazin-1-yl]-7-azaspiro[3.5]nonan-7-yl}-N-[(3R)-5-nitro-3-(oxan-4-yl)-3,4-dihydro-2H-1,4-benzoxazin-7-ylsulfonyl]benzamide]	7.95
CC(C)Oc1ccccc1[C@H]1CN(Cc2ccc(F)c(F)c2)CCN1C1CC2(CCN(c3ccc(C(=O)NS(=O)(=O)c4ccc(NCC5CCC(C)(O)CC5)c([N+](=O)[O-])c4)c(N4c5cc6cc[nH]c6nc5O[C@H]5COCC[C@@H]54)c3)CC2)C1 (stereo partly drawn) [Example 115, 4-{2-[(2S)-4-[(3,4-difluorophenyl)methyl]-2-(2-isopropoxyphenyl)piperazin-1-yl]-7-azaspiro[3.5]nonan-7-yl}-2-[(3R,8S)-2,5-dioxa-9,15,17-triazatetracyclo[8.7.0.0^{3,8}.0^{12,16}]heptadeca-1(10),11,13,16-tetraen-9-yl]-N-[3-nitro-4-({[(1r,4r)-4-hydroxy-4-methylcyclohexyl]methyl}amino)benzenesulfonyl]benzamide]	7.56
CC(C)Oc1ccccc1[C@H]1CN(Cc2ccc(F)c(F)c2)CCN1C1CC2(CCN(c3ccc(C(=O)NS(=O)(=O)c4ccc(NCC5CCOCC5)c([N+](=O)[O-])c4)c(N4c5cc6cc[nH]c6nc5O[C@H]5COCC[C@@H]54)c3)CC2)C1 [Example 185, 4-{2-[(2S)-4-[(3,4-difluorophenyl)methyl]-2-(2-isopropoxyphenyl)piperazin-1-yl]-7-azaspiro[3.5]nonan-7-yl}-2-[(3R,8S)-2,5-dioxa-9,15,17-triazatetracyclo[8.7.0.0^{3,8}.0^{12,16}]heptadeca-1(10),11,13,16-tetraen-9-yl]-N-{3-nitro-4-[(oxan-4-ylmethyl)amino]benzenesulfonyl}benzamide]	6.95
CC(C)Oc1ccccc1[C@@H]1CN([C@H](C)c2ccc(F)c(F)c2)CCN1C1CC2(CCN(c3ccc(C(=O)NS(=O)(=O)c4cc5c(c([N+](=O)[O-])c4)N[C@H](C4CCOCC4)CO5)c(N4c5cc6cc[nH]c6nc5O[C@H]5COCC[C@@H]54)c3)CC2)C1 [Example 242, 4-{2-[(2R)-4-[(1R)-1-(3,4-difluorophenyl)ethyl]-2-(2-isopropoxyphenyl)piperazin-1-yl]-7-azaspiro[3.5]nonan-7-yl}-2-[(3R,8S)-2,5-dioxa-9,15,17-triazatetracyclo[8.7.0.0^{3,8}.0^{12,16}]heptadeca-1(10),11,13,16-tetraen-9-yl]-N-[(3R)-5-nitro-3-(oxan-4-yl)-3,4-dihydro-2H-1,4-benzoxazin-7-ylsulfonyl]benzamide]	7.01
COc1cc(CN2CCN(C3CC4(CCN(c5ccc(C(=O)NS(=O)(=O)c6ccc(NCC7CCC(C)(O)CC7)c([N+](=O)[O-])c6)c(N6c7cc8cc[nH]c8nc7O[C@H]7COCC[C@@H]76)c5)CC4)C3)[C@@H](c3ccccc3OC(C)C)C2)cnc1N1CCOCC1 (stereo partly drawn) [Example 119, N-((4-((((1r,4r)-4-hydroxy-4-methylcyclohexyl)methyl)amino)-3-nitrophenyl)sulfonyl)-4-(2-((S)-2-(2-isopropoxyphenyl)-4-((5-(methoxy-d3)-6-morpholinopyridin-3-yl)methyl)piperazin-1-yl)-7-azaspiro[3.5]nonan-7-yl)-2-((5aS,9aR)-6,7,9,9a-tetrahydro-1H-pyrano[3,4-b]pyrrolo[3′,2′:5,6]pyrido[3,2-e][1,4]oxazin-5(5aH)-yl)benzamide]	7.84
